Experimental data: US4861788A, “Antibacterial 1-normon-2-yl-heterocyclic compounds” (Beecham Group plc, priority 1983, dated 1989)
In brackets after ≈: the same amount, converted by molar mass. Like-named read-outs stand apart in the source and are kept apart here.

Experiments:
[1] = tested on: M. hyosynoviae ATCC 25591; assay: MIC against Mycoplasma in vitro (Friis broth with agarose); type: cell-based; conditions: 144 h; M. hyosynoviae ATCC 25591; 6 days at 37° C; read-out: MIC
M. gallisepticum S6 = assay: as above; type: cell-based; conditions: Mycoplasmoides gallisepticum, 144 h; M. gallisepticum S6; 6 days at 37° C; read-out: MIC
S. typhimurium S18 = assay: MIC against veterinary bacteria in vitro (Diagnostic Sensitivity Test Agar); conditions: Salmonella enterica, 18 h
Description: (§1) The activity of the normonyl derivatives of the Examples against various veterinarily important bacteria, was assayed in vitro using two-fold serial dilutions in Diagnostic Sensitivity Test Agar inoculated with 10^4 organisms.

M. hyopneumoniae MS 16 = assay: MIC against Mycoplasma in vitro (Friis broth with agarose); type: cell-based; conditions: Mesomycoplasma hyopneumoniae, MS16, 144 h; M. hyopneumoniae MS 16; 6 days at 37° C; read-out: MIC
[2] = tested on: Staph. aureus B4 (pen. resistant); assay: MIC against veterinary bacteria in vitro (Diagnostic Sensitivity Test Agar); conditions: Staphylococcus aureus, 18 h
Description: as §1

Bord. bronchiseptica B09 = assay: as above; conditions: Bordetella bronchiseptica, B09, 18 h
Description: as §1

Strep. dysgalactiae SPD1 = assay: as above; conditions: Streptococcus dysgalactiae, SPD1, 18 h
Description: as §1

Past. multocida PA1 = assay: as above; conditions: Pasteurella multocida, PA1, 18 h
Description: as §1

M. hyopneumoniae UCD 1 = assay: MIC against Mycoplasma in vitro (Friis broth with agarose); type: cell-based; conditions: Mesomycoplasma hyopneumoniae, UCD1, 144 h; M. hyopneumoniae UCD 1; 6 days at 37° C; read-out: MIC
Past. haemolytica PA5 = assay: MIC against veterinary bacteria in vitro (Diagnostic Sensitivity Test Agar); conditions: Mannheimia haemolytica, PA5, 18 h
Description: as §1

[3] = tested on: Strep. suis (group D) SPS11; assay: as above; conditions: Streptococcus suis, 18 h
Description: as §1

M. hyopneumoniae TAM 6N = assay: MIC against Mycoplasma in vitro (Friis broth with agarose); type: cell-based; conditions: Mesomycoplasma hyopneumoniae, TAM6N, 144 h; M. hyopneumoniae TAM 6N; 6 days at 37° C; read-out: MIC
M. hyopneumoniae Str. 11 = assay: as above; type: cell-based; conditions: Mesomycoplasma hyopneumoniae, 144 h; M. hyopneumoniae Str. 11; 6 days at 37° C; read-out: MIC
E. coli NCTC 10418 = assay: MIC against veterinary bacteria in vitro (Diagnostic Sensitivity Test Agar); conditions: Escherichia coli, NCTC10418, 18 h
Description: as §1

Past. multocida PA2 = assay: as above; conditions: Pasteurella multocida, PA2, 18 h
Description: as §1

[4] = tested on: M. hyopneumoniae NCTC 101101; assay: MIC against Mycoplasma in vitro (Friis broth with agarose); type: cell-based; conditions: Mesomycoplasma hyopneumoniae, NCTC101101, 144 h; M. hyopneumoniae NCTC 101101; 6 days at 37° C; read-out: MIC
Strep. agalactiae SPA1 = assay: MIC against veterinary bacteria in vitro (Diagnostic Sensitivity Test Agar); conditions: Streptococcus agalactiae, SPA1, 18 h
Description: as §1

[5] = tested on: Corynebacterium pyogenes CY1; assay: as above; conditions: CY1, 18 h
Description: as §1

M. pneumoniae ATCC 15492 = assay: MIC against Mycoplasma in vitro (Friis broth with agarose); type: cell-based; conditions: Mycoplasmoides pneumoniae, ATCC15492, 144 h; M. pneumoniae ATCC 15492; 6 days at 37° C; read-out: MIC
[6] = tested on: M. hyopneumoniae ATCC 25095; assay: as above; type: cell-based; conditions: Mesomycoplasma hyopneumoniae, ATCC25095, 144 h; M. hyopneumoniae ATCC 25095; 6 days at 37° C; read-out: MIC
Bord. bronchiseptica B08 = assay: MIC against veterinary bacteria in vitro (Diagnostic Sensitivity Test Agar); conditions: Bordetella bronchiseptica, B08, 18 h
Description: as §1

M. dispar NCTC 10125 = assay: MIC against Mycoplasma in vitro (Friis broth with agarose); type: cell-based; conditions: 144 h
[7] = tested on: Staph. aureus 152 (pen. sens); assay: MIC against veterinary bacteria in vitro (Diagnostic Sensitivity Test Agar); conditions: Staphylococcus aureus, 18 h
Description: as §1

[8] = tested on: M. bovigenitalium ATCC 14173; assay: MIC against Mycoplasma in vitro (Friis broth with agarose); type: cell-based; conditions: 144 h
[9] = tested on: Erysipelothrix rhusiopathiae NCTC 8163; assay: MIC against veterinary bacteria in vitro (Diagnostic Sensitivity Test Agar); conditions: NCTC8163, 18 h
Description: as §1

Strep. uberis SPU1 = assay: as above; conditions: Streptococcus uberis, SPU1, 18 h
Description: as §1

M. hyorhinis ATCC 23234 = assay: MIC against Mycoplasma in vitro (Friis broth with agarose); type: cell-based; conditions: Mesomycoplasma hyorhinis, ATCC23234, 144 h; M. hyorhinis ATCC 23234; 6 days at 37° C; read-out: MIC
S. dublin S7 = assay: MIC against veterinary bacteria in vitro (Diagnostic Sensitivity Test Agar); conditions: Salmonella enterica, S7, 18 h
Description: as §1

M. hyorhinis ATCC 25021 = assay: MIC against Mycoplasma in vitro (Friis broth with agarose); type: cell-based; conditions: Mesomycoplasma hyorhinis, ATCC25021, 144 h; M. hyorhinis ATCC 25021; 6 days at 37° C; read-out: MIC
M. bovis NCTC 10131 = assay: microbe, parasite or virus in culture; type: cell-based; conditions: NCTC10131, 144 h
[10] = M. dispar NCTC 10125, 6 days at 37° C, read-out: MIC
[11] = M. bovigenitalium ATCC 14173, 6 days at 37° C, read-out: MIC

| SMILES | MIC [1] [µg/mL] | MIC (M. gallisepticum S6) [µg/mL] | MIC (S. typhimurium S18) [µg/mL] | MIC (M. hyopneumoniae MS 16) [µg/mL] | MIC [2] [µg/mL] | MIC (Bord. bronchiseptica B09) [µg/mL] | MIC (Strep. dysgalactiae SPD1) [µg/mL] | MIC (Past. multocida PA1) [µg/mL] | MIC (M. hyopneumoniae UCD 1) [µg/mL] | MIC (Past. haemolytica PA5) [µg/mL] | MIC [3] [µg/mL] | MIC (M. hyopneumoniae TAM 6N) [µg/mL] | MIC (M. hyopneumoniae Str. 11) [µg/mL] | MIC (E. coli NCTC 10418) [µg/mL] | MIC (Past. multocida PA2) [µg/mL] | MIC [4] [µg/mL] | MIC (Strep. agalactiae SPA1) [µg/mL] | MIC [5] [µg/mL] | MIC (M. pneumoniae ATCC 15492) [µg/mL] | MIC [6] [µg/mL] | further results |
| --- | --- | --- | --- | --- | --- | --- | --- | --- | --- | --- | --- | --- | --- | --- | --- | --- | --- | --- | --- | --- | --- |
| CC(=Cc1nnnn1CCCCCCCCC(=O)O)CC1OCC(CC2OC2C(C)C(C)O)C(O)C1O (stereo not shown) [Example 14, Sodium 1-(8-carboxylatooctyl)-5-(1-normon-2-yl)-1H-tetrazole A] | > 10 | > 10 | > 80 | > 10 | > 80 | > 80 | > 80 | 80 | > 10 | > 80 | > 80 | > 10 | > 10 | > 80 | 1.25 | > 10 | > 80 | > 80 | > 10 | > 10 | MIC (Bord. bronchiseptica B08): > 80 µg/mL; MIC (M. dispar NCTC 10125; [10]): 10 µg/mL; MIC [7]: > 80 µg/mL; MIC [8, 11]: 10 µg/mL; MIC [9]: > 80 µg/mL; MIC (Strep. uberis SPU1): > 80 µg/mL; MIC (M. hyorhinis ATCC 23234): > 10 µg/mL; MIC (S. dublin S7): > 80 µg/mL; MIC (M. hyorhinis ATCC 25021): > 10 µg/mL; MIC (M. bovis NCTC 10131): 5 µg/mL |
| CC(=Cc1nnc(-c2ccccc2)o1)CC1OCC(CC2OC2C(C)C(C)O)C(O)C1O (stereo not shown) [Example 1, 2-(1-Normon-2-yl)-5-phenyl-1,3,4-oxadiazole A] | 1 (≈ 2.25 µM) | > 10 | > 80 | 2.5 (≈ 5.62 µM) | 5 (≈ 11.2 µM) | 40 (≈ 90 µM) | 10 (≈ 22.5 µM) | 10 (≈ 22.5 µM) | 5 (≈ 11.2 µM) | 10 (≈ 22.5 µM) | 80 (≈ 180 µM) | 5 (≈ 11.2 µM) | 2.5 (≈ 5.62 µM) | > 80 | 1.25 (≈ 2.81 µM) | 5 (≈ 11.2 µM) | 40 (≈ 90 µM) | > 80 | > 10 | 2.5 (≈ 5.62 µM) | MIC (Bord. bronchiseptica B08): > 80 µg/mL; MIC (M. dispar NCTC 10125; [10]): 0.5 µg/mL (≈ 1.12 µM); MIC [7]: 5 µg/mL (≈ 11.2 µM); MIC [8]: 0.1 µg/mL (≈ 0.225 µM); MIC [9]: 80 µg/mL (≈ 180 µM); MIC (Strep. uberis SPU1): 5 µg/mL (≈ 11.2 µM); MIC (M. hyorhinis ATCC 23234): 2.5 µg/mL (≈ 5.62 µM); MIC (S. dublin S7): > 80 µg/mL; MIC (M. hyorhinis ATCC 25021): 1 µg/mL (≈ 2.25 µM); MIC (M. bovis NCTC 10131): 0.05 µg/mL (≈ 0.112 µM) |
| CC(=Cc1nnnn1Cc1ccc([N+](=O)[O-])cc1)CC1OCC(CC2OC2C(C)C(C)O)C(O)C1O (stereo not shown) [Example 12, 1-(p-Nitrobenzyl)-5-(1-normon-2-yl)tetrazole A] | 2.5 (≈ 4.96 µM) | > 10 | > 80 | 2.5 (≈ 4.96 µM) | > 80 | > 80 | > 80 | > 80 | 5 (≈ 9.93 µM) | > 80 | > 80 | 5 (≈ 9.93 µM) | 2.5 (≈ 4.96 µM) | > 80 | > 80 | 5 (≈ 9.93 µM) | > 80 | > 80 | > 10 | 5 (≈ 9.93 µM) | MIC (Bord. bronchiseptica B08): > 80 µg/mL; MIC (M. dispar NCTC 10125): 1 µg/mL (≈ 1.99 µM); MIC [7]: > 80 µg/mL; MIC [9]: > 80 µg/mL; MIC (Strep. uberis SPU1): 80 µg/mL (≈ 159 µM); MIC (M. hyorhinis ATCC 23234): 5 µg/mL (≈ 9.93 µM); MIC (S. dublin S7): > 80 µg/mL; MIC (M. hyorhinis ATCC 25021): 2.5 µg/mL (≈ 4.96 µM); MIC (M. bovis NCTC 10131): 0.1 µg/mL (≈ 0.199 µM) |
| CC(=Cc1nnc(-c2ccc(S(C)(=O)=O)cc2)o1)CC1OCC(CC2OC2C(C)C(C)O)C(O)C1O (stereo not shown) [Example 4, 2-p-Methylsulphonylphenyl-5-(1-normon-2-yl)-1,3,4-oxadiazole A] | 1 (≈ 1.91 µM) | > 10 | > 80 | 0.1 (≈ 0.191 µM) | 5 (≈ 9.57 µM) | 10 (≈ 19.1 µM) | 10 (≈ 19.1 µM) | 2.5 (≈ 4.78 µM) | 0.25 (≈ 0.478 µM) | 20 (≈ 38.3 µM) | 80 (≈ 153 µM) | 0.5 (≈ 0.957 µM) | 0.25 (≈ 0.478 µM) | > 80 | 1.25 (≈ 2.39 µM) | 0.5 (≈ 0.957 µM) | 10 (≈ 19.1 µM) | > 80 | > 10 | 0.25 (≈ 0.478 µM) | MIC (Bord. bronchiseptica B08): > 80 µg/mL; MIC [7]: 5 µg/mL (≈ 9.57 µM); MIC [8, 11]: 0.25 µg/mL (≈ 0.478 µM); MIC [9]: 40 µg/mL (≈ 76.5 µM); MIC (Strep. uberis SPU1): 2.5 µg/mL (≈ 4.78 µM); MIC (M. hyorhinis ATCC 23234): 0.1 µg/mL (≈ 0.191 µM); MIC (S. dublin S7): > 80 µg/mL; MIC (M. hyorhinis ATCC 25021): 0.1 µg/mL (≈ 0.191 µM); MIC (M. bovis NCTC 10131): 0.05 µg/mL (≈ 0.0957 µM) |
